Test results: publication PMC9597002, “The Combination of Individual Herb of Mi-Jian-Chang-Pu Formula Exerts a Synergistic Effect in the Treatment of Ischemic Stroke in Rats” (Oxidative Medicine and Cellular Longevity, 2022)

Key:
MCAO rats [1] = assay: Infarct volume measurement by TTC staining; assay type: in vivo, Sprague-Dawley rats; conditions: oral once daily 14 days, compared with model group
MCAO rats [2] = assay: Neurological deficit score (Longa's five-point scale) 24 h after reperfusion; conditions: oral once daily 14 days, compared with model group
Experimental: (§1) 0.5% CMC-Na was used as vehicle with an equal volume (100 g/ml body-weight) for each rat. Treatments were administered once daily by oral gavage for 14 consecutive days. After the last administration, rats were fasted for 12 h, MCAO surgery was performed according to the reference by H Nagasawa and K Kogure. […] After 2 h of sustained MCAO, reperfusion was conducted, and the rats in sham operation group received the same surgical procedures except that the occluding monofilament was not inserted.
24 h after reperfusion, all rats were tested for sensorimotor ability according to the Longa's five-point scale (0, no neurologic deficit; 1, a slight forelimb flexion; 2 severe forelimb flexion and decreased resistance to lateral push; 3, spontaneous rotation or contralateral rotation to the affected side; 4, consciousness reduced and unable or difficult to move; 5, no response to stimulation).

MCAO rats [3] = assay: Brain histopathology by HE staining; conditions: oral once daily 14 days
Experimental: as §1
For brain histology, the tissue was fixed in 4% paraformaldehyde for 24 h, then the brain slices were rinsed, dehydrate, paraffin embedded, sectioned, and stained with hematoxylin-eosin (HE). The histopathological changes were observed under optical microscope.

Row | Structure (SMILES) | Cerebral infarction volume ratio (TTC staining) (MCAO rats [1]) | Neurological deficit score (MCAO rats [2]) | Histopathological changes in brain tissue (HE staining) (MCAO rats [3])
1 | C/C=C\c1cc(OC)c(OC)cc1OC [B1, β-asarone] | reduce the infarction volume significantly | significant effects | protective effect on brain injury
2 | CC(/C=C/C=C(\C)C(=O)O[C@@H]1O[C@H](CO[C@@H]2O[C@H](CO)[C@@H](O)[C@H](O)[C@H]2O)[C@@H](O)[C@H](O)[C@H]1O)=C\C=C\C=C(C)\C=C\C=C(/C)C(=O)O[C@@H]1O[C@H](CO[C@@H]2O[C@H](CO)[C@@H](O)[C@H](O)[C@H]2O)[C@@H](O)[C@H](O)[C@H]1O [A1, crocin I] | reduce the infarction volume significantly | significant effects | protective effect on brain injury
